According to PMC8128076 (RSC Medicinal Chemistry, 2021):
Read-outs that look alike come from different tables or passages of the source.

Tests used:
[1] = tested on: phosphorylated S6 ribosomal protein [pS6, Ser235/236]; conditions: read-out: Cellular assays IC50 pS6 S235/236; A2058 melanoma cells; previously reported, ref [14]; cited from earlier work
[2] = biological target: T1, mTOR (Homo sapiens, UniProt P42345); conditions: previously reported, ref [14], cited from earlier work; for SI (selectivity index), Ki(PI3Kα)/Ki(mTOR): mTOR over PI3Kα
[3] = biological target: PI3Kα (p110α) (Homo sapiens, UniProt P42336); conditions: read-out: In vitro binding assays Ki PI3Kα; TR-FRET displacement, mean ± SD; previously reported, ref [14]; cited from earlier work
[4] = tested on: human MDR1 (P-gp); assay: in vitro; conditions: dog, MDCK-MDR1
[5] = biological target: T1, mTOR; assay: LanthaScreen TR-FRET displacement binding assay, mTOR

T1 sequence (P42345 1360-2549): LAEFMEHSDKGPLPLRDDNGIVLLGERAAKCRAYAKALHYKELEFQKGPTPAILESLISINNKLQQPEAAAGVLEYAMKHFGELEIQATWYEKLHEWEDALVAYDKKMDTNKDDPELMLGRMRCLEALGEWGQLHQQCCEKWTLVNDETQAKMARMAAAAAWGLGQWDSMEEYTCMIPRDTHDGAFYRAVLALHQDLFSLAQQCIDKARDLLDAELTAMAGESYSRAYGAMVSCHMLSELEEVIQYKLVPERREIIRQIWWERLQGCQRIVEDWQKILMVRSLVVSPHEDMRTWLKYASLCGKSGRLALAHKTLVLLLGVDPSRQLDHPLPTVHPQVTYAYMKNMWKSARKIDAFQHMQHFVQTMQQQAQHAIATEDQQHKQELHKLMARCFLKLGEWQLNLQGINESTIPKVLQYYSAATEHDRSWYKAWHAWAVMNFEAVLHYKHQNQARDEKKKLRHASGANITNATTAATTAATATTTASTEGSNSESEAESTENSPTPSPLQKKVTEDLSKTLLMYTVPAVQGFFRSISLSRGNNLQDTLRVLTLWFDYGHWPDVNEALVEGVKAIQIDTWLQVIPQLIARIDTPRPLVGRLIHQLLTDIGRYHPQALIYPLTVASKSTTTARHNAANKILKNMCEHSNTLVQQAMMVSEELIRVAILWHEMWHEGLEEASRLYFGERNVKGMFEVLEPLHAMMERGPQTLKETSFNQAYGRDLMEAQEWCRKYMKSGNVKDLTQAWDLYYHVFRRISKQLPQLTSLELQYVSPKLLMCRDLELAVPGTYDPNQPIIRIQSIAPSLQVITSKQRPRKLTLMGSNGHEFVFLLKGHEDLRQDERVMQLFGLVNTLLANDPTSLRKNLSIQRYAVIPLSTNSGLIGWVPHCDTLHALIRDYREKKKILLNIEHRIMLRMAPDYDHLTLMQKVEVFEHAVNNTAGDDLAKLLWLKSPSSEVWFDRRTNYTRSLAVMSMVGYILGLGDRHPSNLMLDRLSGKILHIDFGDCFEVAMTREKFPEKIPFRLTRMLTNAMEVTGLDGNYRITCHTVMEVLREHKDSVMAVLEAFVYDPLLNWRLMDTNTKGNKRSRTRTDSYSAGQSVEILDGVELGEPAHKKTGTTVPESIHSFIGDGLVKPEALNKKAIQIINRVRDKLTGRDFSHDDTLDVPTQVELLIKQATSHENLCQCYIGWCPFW
PI3Kα (p110α), sequence (P42336 whole entry): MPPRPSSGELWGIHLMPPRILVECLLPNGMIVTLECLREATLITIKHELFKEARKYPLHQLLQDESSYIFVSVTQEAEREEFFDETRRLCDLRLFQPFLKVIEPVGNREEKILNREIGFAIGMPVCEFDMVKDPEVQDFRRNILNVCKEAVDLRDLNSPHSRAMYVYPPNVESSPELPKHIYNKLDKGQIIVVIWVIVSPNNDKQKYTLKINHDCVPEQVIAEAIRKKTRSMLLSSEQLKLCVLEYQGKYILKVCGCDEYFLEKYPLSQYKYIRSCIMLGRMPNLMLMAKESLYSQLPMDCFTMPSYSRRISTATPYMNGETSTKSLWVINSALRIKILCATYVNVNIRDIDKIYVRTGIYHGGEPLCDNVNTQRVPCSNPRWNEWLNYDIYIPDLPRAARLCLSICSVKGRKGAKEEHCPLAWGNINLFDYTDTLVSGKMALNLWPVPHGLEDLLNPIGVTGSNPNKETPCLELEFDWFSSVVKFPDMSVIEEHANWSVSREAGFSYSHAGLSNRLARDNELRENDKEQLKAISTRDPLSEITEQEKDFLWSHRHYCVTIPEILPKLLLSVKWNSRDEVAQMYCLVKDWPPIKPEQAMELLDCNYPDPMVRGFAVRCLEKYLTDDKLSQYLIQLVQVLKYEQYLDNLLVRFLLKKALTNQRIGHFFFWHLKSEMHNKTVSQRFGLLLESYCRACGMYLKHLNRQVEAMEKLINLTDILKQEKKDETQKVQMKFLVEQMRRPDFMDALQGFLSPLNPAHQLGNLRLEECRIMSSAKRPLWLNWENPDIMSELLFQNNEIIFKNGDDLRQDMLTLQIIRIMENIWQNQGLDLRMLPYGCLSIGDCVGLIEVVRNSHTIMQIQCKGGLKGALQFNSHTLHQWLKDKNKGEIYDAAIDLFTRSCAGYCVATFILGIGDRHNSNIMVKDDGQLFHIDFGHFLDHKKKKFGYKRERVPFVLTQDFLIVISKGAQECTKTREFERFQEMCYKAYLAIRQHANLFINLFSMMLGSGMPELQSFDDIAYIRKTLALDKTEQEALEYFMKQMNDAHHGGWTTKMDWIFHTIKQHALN
PI3Kα (p110α), sequence (P27986 whole entry partner): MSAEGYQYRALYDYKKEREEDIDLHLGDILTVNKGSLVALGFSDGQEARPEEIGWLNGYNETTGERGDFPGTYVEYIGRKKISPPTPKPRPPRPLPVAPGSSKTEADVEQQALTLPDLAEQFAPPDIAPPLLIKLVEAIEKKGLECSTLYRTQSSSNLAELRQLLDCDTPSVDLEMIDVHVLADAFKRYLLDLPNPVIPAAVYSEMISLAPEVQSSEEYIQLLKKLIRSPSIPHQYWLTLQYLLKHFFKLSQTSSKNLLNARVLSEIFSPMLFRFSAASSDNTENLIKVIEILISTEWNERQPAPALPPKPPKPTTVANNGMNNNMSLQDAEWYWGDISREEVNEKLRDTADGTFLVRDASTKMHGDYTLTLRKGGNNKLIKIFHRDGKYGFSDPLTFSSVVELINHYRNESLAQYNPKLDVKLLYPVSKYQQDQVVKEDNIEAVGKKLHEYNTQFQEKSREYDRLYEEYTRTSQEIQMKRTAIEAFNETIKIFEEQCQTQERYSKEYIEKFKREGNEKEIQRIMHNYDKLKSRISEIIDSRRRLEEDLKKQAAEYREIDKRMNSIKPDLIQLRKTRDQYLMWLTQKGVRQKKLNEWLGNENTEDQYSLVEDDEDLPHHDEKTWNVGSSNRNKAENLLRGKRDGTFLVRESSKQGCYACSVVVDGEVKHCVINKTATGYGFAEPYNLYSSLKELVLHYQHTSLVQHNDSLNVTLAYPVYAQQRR

Row | Compound | IC50 [1] | SI (selectivity index), Ki(PI3Kα)/Ki(mTOR) [2] | Ki [3] | Papp [4] | other results
1 | C[C@@H]1COCCN1c1nc(-c2cnc(N)cn2)nc2c1C[C@@H]1COCCN21 [Compound 12b, reference compound] | 60 ± 13 nM | 212 | 1690 ± 277 nM | < 60 ×10⁻⁶ cm/s | –
2 | C[C@@H]1COCCN1c1nc(-c2cnc(N)nc2C(F)F)nc2c1C[C@@H]1COCCN21 [Compound 8] | – | – | – | – | SI (selectivity index), Ki(PI3Kα)/Ki(mTOR) ([5]; mTOR over PI3Kα): < 1
3 | C[C@@H]1COCCN1c1nc(-c2cnc(N)s2)nc2c1C[C@@H]1COCCN21 [Compound 6] | – | – | – | < 60 ×10⁻⁶ cm/s | –
4 | C[C@@H]1COCCN1c1nc(-c2nc(N)ns2)nc2c1C[C@@H]1COCCN21 [Compound 2] | – | – | – | – | fold decrease in mTOR affinity ([5]; 1,2,4-thiadiazole 2 versus pyrimidine 1): > 10 fold
5 | C[C@@H]1COCCN1c1nc(-c2nnc(N)s2)nc2c1C[C@@H]1COCCN21 [Compound 4] | – | – | – | < 60 ×10⁻⁶ cm/s | –
6 | C[C@@H]1COCCN1c1nc(-c2ccc(N)nc2)nc2c1C[C@@H]1COCCN21 [Compound 5] | 61 ± 12 nM | 215 | 2150 ± 400 nM | – | Ki ([2]; read-out: In vitro binding assays Ki mTOR, TR-FRET displacement, mean ± SD): 10 ± 1.6 nM
